# Laboratory results reported in patent publication US8513289B2, “P38 kinase inhibiting agents” (Merck Sharp & Dohme Corp., priority 2009, dated 2013).
# Experiments:
# p38-α = target: T1, p38-α (Homo sapiens, UniProt Q16539); test: p38 kinase assay, p38-α with peptide substrate (Caliper LabChip); assay type: biochemical; settings: read-out: IC50 p38a*peptide
# T1 construct: purchased Millipore
# Experimental: Alternatively, p38 kinase assays were performed in a reaction volume of 70 µL in a 384-well plate, at 30° for […] under the following conditions: 50 mM Hepes, pH 7.4, 10 mM MgCl2, 1 mg/ml FA Free BSA, 1 mM DTT, 10 μM ATP, 10 μM p38 peptide [Caliper Life Sciences FL-Peptide 8 (5-FAM-IPTSPITTTYFFEKKK-COOH)] and 5.7 nM p38-α (Millipore), or 14.3 nM unactivated MAPKAP kinase-2, 0.18 nM p38-α (Millipore) and 2 uM RSK peptide [Caliper Life Sciences FL-Peptide 11 (5-FAM-KKLNRTLSVA-COOH)]. Serial dilutions of compounds were added to each reaction in 700 nL DMSO. 700 nL of DMSO was added to the control wells of the reaction plate as the no inhibitor control for each inhibitor titration. The reaction was terminated by the addition of 15 μL of a 100 mM EDTA. Product formation was analyzed using the Caliper LabChip 3000. The Separation buffer contained 100 mM HEPES pH 7.5, 0.015% Brij-35, 2.5% Coating Reagent #3 (Caliper Life Sciences) and 10 mM EDTA. Calculation of the substrate product ratios are performed using the HTS Well Analyzer software provided by Caliper Life Sciences and the percent inhibition at each compound concentration is determined.
# hWB = test: IC50 hWB (TNF-α release assay); assay type: cell-based; settings: Homo sapiens
# T1 sequence (Q16539 whole entry): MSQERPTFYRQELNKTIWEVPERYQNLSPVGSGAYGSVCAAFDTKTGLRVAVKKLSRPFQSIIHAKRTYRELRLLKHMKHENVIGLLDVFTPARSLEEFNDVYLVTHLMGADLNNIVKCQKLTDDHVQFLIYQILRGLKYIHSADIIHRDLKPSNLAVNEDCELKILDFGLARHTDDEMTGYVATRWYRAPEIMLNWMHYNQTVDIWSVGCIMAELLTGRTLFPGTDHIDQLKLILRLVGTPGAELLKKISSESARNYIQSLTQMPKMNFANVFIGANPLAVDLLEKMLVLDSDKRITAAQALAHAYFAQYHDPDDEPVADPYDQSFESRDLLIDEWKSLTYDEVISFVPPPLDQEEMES
SMILES,IC50 (p38-α) [nM],IC50 (hWB) [nM]
"O=C(NCc1nnc(-c2ccco2)s1)c1cc(C(=O)c2c(F)cc(F)cc2F)c[nH]1 [Example 15, N-{[5-(2-furyl)-1,3,4-thiadiazol-2-yl]methyl}-4-(2,4,6-trifluorobenzoyl)-1H-pyrrole-2-carboxamide]",98,614
"O=C(NCc1nnc(-c2ccc[nH]2)s1)c1cc(C(=O)c2c(F)cc(F)cc2F)c[nH]1 [Example 14, N-{[5-(1H-pyrrol-2-yl)-1,3,4-thiadiazol-2-yl]methyl}-4-(2,4,6-trifluorobenzoyl)-1H-pyrrole-2-carboxamide]",121,1270
"CC(C)c1cc(-c2nnc(CNC(=O)c3cc(C(=O)c4c(F)cc(F)cc4F)c[nH]3)s2)[nH]n1 [Example 25, N-{[5-(3-isopropyl-1H-pyrazol-5-yl)-1,3,4-thiadiazol-2-yl]methyl}-4-(2,4,6-trifluorobenzoyl)-1H-pyrrole-2-carboxamide]",10,90
"O=C(NCc1nnc(-c2cnccn2)s1)c1cc(C(=O)c2c(F)cc(F)cc2F)c[nH]1 [Example 21, N-[(5-pyrazin-2-yl-1,3,4-thiadiazol-2-yl)methyl]-4-(2,4,6-trifluorobenzoyl)-1H-pyrrole-2-carboxamide]",78,815
"COc1ccc(-c2nnc(CNC(=O)c3cc(C(=O)c4c(F)cc(F)cc4F)c[nH]3)s2)cn1 [Example 17, N-{[5-(6-methoxypyridin-3-yl)-1,3,4-thiadiazol-2-yl]methyl}-4-(2,4,6-trifluorobenzoyl)-1H-pyrrole-2-carboxamide]",78,2820
"O=C(NCc1nnc(-c2cccc(F)c2)s1)c1cc(C(=O)c2c(F)cc(F)cc2F)c[nH]1 [Example 9, N {[5-(3-fluorophenyl)-1,3,4-thiadiazol-2-yl]methyl}-4-(2,4,6-trifluorobenzoyl)-1H-pyrrole-2-carboxamide]",462,3490
"O=C(NCc1nnc(-c2ccccc2)s1)c1cc(C(=O)c2c(F)cc(F)cc2F)c[nH]1 [Example 7, N-[(5-phenyl-1,3,4-thiadiazol-2-yl)methyl]-4-(2,4,6-trifluorobenzoyl)-1H-pyrrole-2-carboxamide]",42,4350
"O=C(NCc1nnc(-c2ccn[nH]2)s1)c1cc(Cc2c(F)cc(F)cc2F)c[nH]1 [Example 45, N-{[5-(1H-pyrazol-5-yl)-1,3,4-thiadiazol-2-yl]methyl}-4-(2,4,6-trifluorobenzyl)-1H-pyrrole-2-carboxamide]",354,1360
"O=C(NCc1nnc(-c2c(F)cccc2F)s1)c1cc(C(=O)c2c(F)cc(F)cc2F)c[nH]1 [Example 11, N-{[5-(2,6-difluorophenyl)-1,3,4-tbiadiazol-2-yl]methyl}-4-(2,4,6-trifluorobenzoyl)-1H-pyrrole-2-carboxamide]",276,2850
"Cc1cc(-c2nnc(CNC(=O)c3cc(Cc4c(F)cc(F)cc4F)c[nH]3)s2)[nH]n1 [Example 46, N-{[5-(3-methyl-1H-pyrazol-5-yl)-1,3,4-thiadiazol-2-yl]methyl}-4-(2,4,6-trifluorobenzyl)-1H-pyrrole-2-carboxamide]",243,3270
"O=C(NCc1nnc(-c2ccc[nH]c2=O)s1)c1cc(C(=O)c2c(F)cc(F)cc2F)c[nH]1 [Example 35, N-{[5-(2-oxo-1,2-dihydropyridin-3-yl)-1,3,4-thiadiazol-2-yl]methyl}-4-(2,4,6-trifluorobenzoyl)-1H-pyrrole-2-carboxamide]",37.5,168
O=C(NCc1nnc(-c2cc3ncccn3n2)s1)c1cc(C(=O)c2c(F)cc(F)cc2F)c[nH]1 [Example 29],17,885
"O=C(NCc1nnc(-c2ccccn2)s1)c1cc(C(=O)c2c(F)cc(F)cc2F)c[nH]1 [Example 12, N-[(5-pyridin-2-yl-1,3,4-thiadiazol-2-yl)methyl]-4-(2,4,6-trifluorobenzoyl)-1H-pyrrole-2-carboxamide]",66,570
"Cc1cc(-c2nnc(CNC(=O)c3cc(C(=O)c4c(F)cc(F)cc4F)c[nH]3)s2)[nH]n1 [Example 20, N-{[5-(3-methyl-1H-pyrazol-5-yl)-1,3,4-thiadiazol-2-yl]methyl}-4-(2,4,6-trifluorobenzoyl)-1H-pyrrole-2-carboxamide]",22,262
